Laboratory results as given in PubChem BioAssay AID248 (DTP/NCI, 2004).
Several values for one entry are separate records, joined by “and”; a condition that tells them apart may be missing. Equal values may be shown once. Toxic doses and inconclusive results are not listed. Square brackets hold non-standard residues; d marks the D form. Peptide text beside a SMILES is read from it. * marks the point of attachment. ξ: configuration not given here. Cbz = O=C(OCc1ccccc1)*; OBn = c1ccc(CO*)cc1; ξS = NC(CO)C(=O)O

System: L1210 leukemia ip in BDF1 mice, survival T/C
Test: NCI In Vivo Anticancer Drug Screen. Data for tumor model L1210 Leukemia (intraperitoneal) in B6D2F1 (BDF1) mice
Conditions: endpoint: mean survival time, higher = longer survival
Procedure, shortened: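 Transplanted-tumor mice were given test agent; controls received vehicle only. Survival readings from the two groups were divided (treated over control).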

[1] = dose: 100.0 mg/kg/injection, schedule: Q04DX002 (ip), vehicle: saline with Tween-80
[2] = dose: 200.0 mg/kg/injection, schedule: Q04DX002 (ip), vehicle: saline with Tween-80
[3] = dose: 400.0 mg/kg/injection, schedule: Q04DX002 (ip), vehicle: saline with Tween-80
[4] = dose: 100.0 mg/kg/injection, schedule: Q04DX003 (ip), vehicle: Klucel (hydroxypropylcellulose) (HPC)
[5] = dose: 200.0 mg/kg/injection, schedule: Q01DX009 (ip), vehicle: Klucel (hydroxypropylcellulose) (HPC)
[6] = dose: 200.0 mg/kg/injection, schedule: Q04DX003 (ip), vehicle: Klucel (hydroxypropylcellulose) (HPC)
[7] = dose: 400.0 mg/kg/injection, schedule: Q04DX003 (ip), vehicle: Klucel (hydroxypropylcellulose) (HPC)
[8] = dose: 100.0 mg/kg/injection, schedule: Q01DX009 (ip), vehicle: Klucel (hydroxypropylcellulose) (HPC)
[9] = dose: 100.0 mg/kg/injection, schedule: Q01DX009 (ip), vehicle: saline with Tween-80
[10] = dose: 200.0 mg/kg/injection, schedule: Q01DX009 (ip), vehicle: saline with Tween-80

C=C1C(=O)OC2CC(C)CCC/C(CO)=C/C(OC(=O)/C(=C/CO)CO)C12 (configuration not stated)
T/C (dose: 3.75 mg/kg/injection, schedule: Q04DX003 (ip), vehicle: saline): 89 % of control | T/C (dose: 4.9 mg/kg/injection, schedule: Q01DX009 (ip), vehicle: acetone): 93 % of control | T/C (dose: 7.5 mg/kg/injection, schedule: Q01DX001 (ip), vehicle: acetone): 97 % of control | T/C (dose: 7.5 mg/kg/injection, schedule: Q01DX009 (ip), vehicle: acetone): 98 % of control | T/C (dose: 7.5 mg/kg/injection, schedule: Q04DX003 (ip), vehicle: saline): 100 % of control | T/C (dose: 11.0 mg/kg/injection, schedule: Q01DX009 (ip), vehicle: acetone): 93 % of control | T/C (dose: 15.0 mg/kg/injection, schedule: Q01DX001 (ip), vehicle: acetone): 103 % of control | T/C (dose: 15.0 mg/kg/injection, schedule: Q04DX003 (ip), vehicle: saline): 99 % of control

CNC(=O)NC1C(O)COC(OC)C1O (configuration not stated)
T/C (dose: 6.25 mg/kg/injection, schedule: Q01DX009 (ip), vehicle: saline with Tween-80): 101 % of control | T/C (dose: 12.5 mg/kg/injection, schedule: Q01DX009 (ip), vehicle: saline with Tween-80): 101 % of control | T/C (dose: 25.0 mg/kg/injection, schedule: Q01DX009 (ip), vehicle: saline with Tween-80): 105 % of control | T/C (dose: 50.0 mg/kg/injection, schedule: Q01DX009 (ip), vehicle: saline with Tween-80): 100 % of control

CC1CC(C)(C)OC(C)(C)O1 (configuration not stated)
T/C (dose: 50.0 mg/kg/injection, schedule: Q01DX009 (ip), vehicle: acetone): 90 % of control and 95 % of control | T/C (dose: 100.0 mg/kg/injection, schedule: Q01DX009 (ip), vehicle: acetone): 97 % of control and 94 % of control | T/C [1]: 101 % of control | T/C (dose: 100.0 mg/kg/injection, schedule: Q04DX003 (ip), vehicle: acetone): 104 % of control and 109 % of control | T/C (dose: 200.0 mg/kg/injection, schedule: Q01DX009 (ip), vehicle: acetone): 94 % of control and 95 % of control | T/C [2]: 93 % of control | T/C (dose: 200.0 mg/kg/injection, schedule: Q04DX003 (ip), vehicle: acetone): 95 % of control and 104 % of control | T/C [3]: 104 % of control | T/C (dose: 400.0 mg/kg/injection, schedule: Q04DX003 (ip), vehicle: acetone): 94 % of control and 95 % of control

CC(=O)CC(=O)Nc1cc(Cl)ccc1C
T/C [4]: 92 % of control | T/C [5]: 92 % of control | T/C [6]: 97 % of control | T/C [7]: 92 % of control

CC(=O)[C@]1(O)Cc2c(O)c3c(c(O)c2[C@@H](OC2CC(N)C(O)C(C)O2)C1)C(=O)c1c(O)cccc1C3=O (some centres not stated)
T/C (dose: 0.05 mg/kg/injection, schedule: Q03DX003 (ip), vehicle: saline): 109 % of control | T/C (dose: 0.1 mg/kg/injection, schedule: Q03DX003 (ip), vehicle: saline): 123 % of control | T/C (dose: 0.2 mg/kg/injection, schedule: Q01DX001 (ip), vehicle: saline): 122 % of control | T/C (dose: 0.4 mg/kg/injection, schedule: Q01DX009 (ip), vehicle: saline): 154 % of control | T/C (dose: 0.4 mg/kg/injection, schedule: Q03DX003 (ip), vehicle: saline): 157 % of control | T/C (dose: 0.8 mg/kg/injection, schedule: Q01DX001 (ip), vehicle: saline): 192 % of control | T/C (dose: 0.8 mg/kg/injection, schedule: Q01DX009 (ip), vehicle: saline): 98 % of control | T/C (dose: 0.8 mg/kg/injection, schedule: Q03DX003 (ip), vehicle: saline): 159 % of control | T/C (dose: 1.6 mg/kg/injection, schedule: Q01DX001 (ip), vehicle: saline): 166 % of control

Nc1nc(N)c2nc(CNc3ccc(C(=O)NC(CCC(=O)O)C(=O)O)nc3)cnc2n1 (configuration not stated)
T/C (dose: 0.44 mg/kg/injection, schedule: Q01DX009 (ip), vehicle: Klucel (hydroxypropylcellulose) (HPC)): 169 % of control | T/C (dose: 0.66 mg/kg/injection, schedule: Q01DX009 (ip), vehicle: Klucel (hydroxypropylcellulose) (HPC)): 168 % of control | T/C (dose: 75.0 micrograms/kg/injection, schedule: Q01DX009 (ip), vehicle: Klucel (hydroxypropylcellulose) (HPC)): 119 % of control | T/C (dose: 100.0 micrograms/kg/injection, schedule: Q01DX009 (ip), vehicle: Klucel (hydroxypropylcellulose) (HPC)): 150 % of control | T/C (dose: 150.0 micrograms/kg/injection, schedule: Q01DX009 (ip), vehicle: Klucel (hydroxypropylcellulose) (HPC)): 156 % of control and 160 % of control | T/C (dose: 220.0 micrograms/kg/injection, schedule: Q01DX009 (ip), vehicle: Klucel (hydroxypropylcellulose) (HPC)): 161 % of control | T/C (dose: 600.0 micrograms/kg/injection, schedule: Q01DX009 (ip), vehicle: Klucel (hydroxypropylcellulose) (HPC)): 102 % of control

Cc1nc(SCc2ccc(Cl)cc2)nc(N2CC2)c1Br
T/C (dose: 59.0 mg/kg/injection, schedule: Q01DX Z (ip), vehicle: methylcellulose (MC)): 94 % of control | T/C (dose: 88.0 mg/kg/injection, schedule: Q01DX Z (ip), vehicle: methylcellulose (MC)): 86 % of control | T/C (dose: 200.0 mg/kg/injection, schedule: Q01DX Z (ip), vehicle: methylcellulose (MC)): 95 % of control

O=[N+]([O-])c1cc2c3ccccc3oc2c2cccnc12
T/C [8]: 91 % of control | T/C [4]: 90 % of control | T/C [5]: 90 % of control | T/C [6]: 90 % of control | T/C [7]: 89 % of control

CCCc1nc2c(c(=O)n(C)c(=O)n2C)n1C
T/C (dose: 45.0 mg/kg/injection, schedule: Q01DX001 (ip), vehicle: saline): 97 % of control and 98 % of control | T/C (dose: 67.0 mg/kg/injection, schedule: Q01DX001 (ip), vehicle: saline): 97 % of control and 103 % of control | T/C (dose: 100.0 mg/kg/injection, schedule: Q01DX001 (ip), vehicle: saline): 94 % of control and 101 % of control | T/C (dose: 150.0 mg/kg/injection, schedule: Q01DX001 (ip), vehicle: saline): 98 % of control and 101 % of control

CCCCCCCCCCCCN1CCC(=O)NC1=O
T/C [9]: 100 % of control | T/C [10]: 97 % of control

C=CCOc1ccnc(OCC=C)n1
T/C (dose: 100.0 mg/kg/injection, schedule: Q01DX009 (ip), vehicle: saline): 108 % of control | T/C (dose: 100.0 mg/kg/injection, schedule: Q04DX003 (ip), vehicle: saline): 105 % of control | T/C (dose: 200.0 mg/kg/injection, schedule: Q01DX009 (ip), vehicle: saline): 101 % of control | T/C (dose: 200.0 mg/kg/injection, schedule: Q04DX003 (ip), vehicle: saline): 102 % of control | T/C (dose: 400.0 mg/kg/injection, schedule: Q01DX009 (ip), vehicle: saline): 87 % of control | T/C (dose: 400.0 mg/kg/injection, schedule: Q04DX003 (ip), vehicle: saline): 105 % of control

COc1ccc([N+](=O)[O-])cc1NC(=O)Cc1ccccc1
T/C [9]: 107 % of control | T/C [10]: 101 % of control | T/C (dose: 400.0 mg/kg/injection, schedule: Q01DX009 (ip), vehicle: saline with Tween-80): 91 % of control

Br/C(=C(/Br)c1ccccc1)c1ccccc1
T/C (dose: 50.0 mg/kg/injection, schedule: Q01DX009 (ip), vehicle: Klucel (hydroxypropylcellulose) (HPC)): 105 % of control | T/C [8]: 91 % of control | T/C [5]: 102 % of control

CC(=O)C(=O)Nc1ccccc1
T/C (dose: 100.0 mg/kg/injection, schedule: Q01DX001 (ip), vehicle: saline with Tween-80): 94 % of control | T/C (dose: 200.0 mg/kg/injection, schedule: Q01DX001 (ip), vehicle: saline with Tween-80): 91 % of control | T/C (dose: 400.0 mg/kg/injection, schedule: Q01DX001 (ip), vehicle: saline with Tween-80): 94 % of control

O=C(CNC(=O)OCc1ccccc1)NC(CO)C(=O)OCc1ccccc1 (stereo not drawn) (Cbz-Gly-[ξS]-OBn)
T/C [4]: 101 % of control | T/C [6]: 101 % of control | T/C [7]: 105 % of control

CS(=O)(=O)OCCCCCCOCCCCOCCCCOCCCCCCOS(C)(=O)=O
T/C (dose: 100.0 mg/kg/injection, schedule: Q01DX001 (ip), vehicle: Klucel (hydroxypropylcellulose) (HPC)): 92 % of control | T/C (dose: 200.0 mg/kg/injection, schedule: Q01DX001 (ip), vehicle: Klucel (hydroxypropylcellulose) (HPC)): 93 % of control | T/C (dose: 400.0 mg/kg/injection, schedule: Q01DX001 (ip), vehicle: Klucel (hydroxypropylcellulose) (HPC)): 93 % of control

O=C(CC(C(=O)c1ccccc1)c1ccccc1)c1ccccc1 (configuration not stated)
T/C [8]: 93 % of control and 89 % of control | T/C [5]: 103 % of control | T/C (dose: 400.0 mg/kg/injection, schedule: Q01DX009 (ip), vehicle: Klucel (hydroxypropylcellulose) (HPC)): 94 % of control and 103 % of control

COC(=O)COc1c(C)cc(Cl)cc1Cl
T/C [1]: 96 % of control | T/C [2]: 86 % of control | T/C [3]: 98 % of control
